Literature values as cited in US8470377B2, “Composition and method for reducing food intake” (Natures Remedies Ltd., priority 2009, dated 2013).

Legend:
[1] = for food intake and appetite ratings: literature studies
GLP-1 = conditions: approximately 20 g per day for 7 days, human volunteers

| Compound | food intake and appetite ratings [1] | further results |
| --- | --- | --- |
| O=C(O)CC(O)(C(=O)O)C(O)C(=O)O (centres unmarked) [HCA-SX, hydroxycitric acid] | – | decrease in food intake ([1]; human studies): 4% |
| beta-glucan | not significantly reduced | – |
| fructooligosaccharides | not significantly reduced | – |
| methylcellulose | not significantly reduced | – |
| oligofructose | – | serum GLP-1 levels (GLP-1): increased; reduction in total intake ([1]; human studies): 5% |
| pectin | not significantly reduced | – |
| sodium alginate | – | reduction in energy intake ([1]; human studies): 7% |
